Measured values reported in patent US8178512B2, “Methods and compositions for treating diseases and disorders associated with siglec-8” (Johns Hopkins University, priority 2004, dated 2012).
Values joined by “and” are separate entries in the source; they are usually repeats but may differ in a detail not shown here. Equal values may be shown once. “Also recorded” adds a separate entry of the source. Read-outs that look alike come from different tables or passages of the source. One block for each compound: values may come before it.

Experiments:
[1] = target: T1, Siglec-8-Ig (Homo sapiens, UniProt Q9NYZ4); assay: Siglec-8-Ig binding affinity by surface plasmon resonance (SPR), biotinylated glycosides on streptavidin sensor chip; conditions: for Siglec-8-Ig binding by SPR (in words): LacNAc reference surface; for Siglec-8-Ig binding by SPR (in words) / Kd: SPR; for Kd: 25° C., equilibrium binding, Siglec-8-Ig 0.1-18 uM, read-out: dissociation constant (Kd) of Siglec-8-Ig binding
T1 construct: The extracellular domain of Siglec-8 was inserted in frame with a Factor Xa cleavage site and the Fc portion of human IgG1; made in house; host or cells: CHOEA1 cells (electroporated), purified from supernatants on Protein A Sepharose
T1 sequence (Q9NYZ4 17-363 limits assumed): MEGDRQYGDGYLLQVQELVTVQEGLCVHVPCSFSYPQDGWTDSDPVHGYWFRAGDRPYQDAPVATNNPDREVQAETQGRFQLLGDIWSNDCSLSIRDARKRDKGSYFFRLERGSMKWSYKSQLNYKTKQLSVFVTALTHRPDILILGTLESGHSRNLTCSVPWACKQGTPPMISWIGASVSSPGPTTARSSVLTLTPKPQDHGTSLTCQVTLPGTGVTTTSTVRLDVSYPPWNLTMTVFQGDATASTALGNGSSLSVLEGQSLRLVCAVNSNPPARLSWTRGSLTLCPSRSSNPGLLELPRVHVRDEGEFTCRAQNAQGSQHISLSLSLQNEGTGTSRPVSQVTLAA
Experimental: (§1) The extracellular domain of Siglec-8 was inserted in frame with a Factor Xa cleavage site and the Fc portion of human IgG1, expanded in electroporated CHOEA1 cells, and then purified from supernatants (final concentration: 2.4 mg/ml) using Protein A Sepharose as previously described (Kikly, K. K., Bochner, B. S., Freeman, S., Tan, K. B., Gallagher, K. T., D'Alessio, K., Holmes, S. D., Abrahamson, J., Hopson, C. B., Fischer, E. I., Erickson-Miller, C. L., Tachimoto, H., Schleimer, R. P., and White, J. R. (2000) J. Allergy Clin. Immunol. 105, 1093-1100).
All SPR experiments were performed at 25° C. on a Biacore 3000 instrument (Biacore Inc., Piscataway, N.J.). Biotinylated glycosides were captured on research grade streptavidin (SA) coated sensor chips (Sensor Chip SA, Biacore) that were pre-treated according to the manufacturer's instructions. A solution of each biotinylated glycoside (10 fmol/μl) was injected at 2 μl/min in PBS (pH 7.4) containing 0.005% Tween-20 (running buffer) for varying lengths of time (3-7 minutes) until an optimal amount of glycan was captured on each independent surface. Three related glycosides were studied using one SA sensor chip. […] Increasing concentrations of Siglec-8-Ig (0.1-18 uM) were injected at a flow rate of 60 μl/min over all four surfaces of the sensor chip. […] The equilibrium binding data of Siglec-8-Ig were analyzed by non-linear curve fitting using the BIAevaluation software (Biacore Inc.).
The binding affinities of Siglec-8 for #108, #182 and #181 (FIGS. 3A-C, respectively) were determined on a Biacore B3000 instrument using a streptavidin-coated sensor chip. LacNAc glycoside was captured on one surface of the sensor chip and used as negative control (data not shown).

[2] = target: T2, Siglec-8-Ig fusion protein (Homo sapiens, UniProt Q9NYZ4); assay: Glycan array screening: Siglec-8-Ig binding to biotinylated glycosides on streptavidin-coated 384-well plates; conditions: 172 structures screened
T2 construct: The extracellular domain of Siglec-8 was inserted in frame with a Factor Xa cleavage site and the Fc portion of human IgG1; made in house; host or cells: CHOEA1 cells (electroporated), purified from supernatants on Protein A Sepharose
T2 sequence (Q9NYZ4 17-363 limits assumed): as above
Experimental: as §1
Biotinylated glycosides (Korchagina, E., and Bovina, N. V. (1992) Bioorg Khim 18, 283-298) were coated in replicates of n=3 or n=4 on streptavidin-coated microtiter plates (Pierce Reacti-Bind™ NeutrAvidin™ Coated High Binding Capacity Black 384-Well Plates, Product #15513, Rockford, Ill.). Each well was incubated overnight at 4° C. with 30 pmol/well of glycoside in 25 ul phosphate buffered saline (PBS), pH 7.4. The plates were washed three times with 100 ul PBS using an automated plate washer (Molecular Devices, Sunnyvale, Calif.) and stored sealed at 4° C. in 25 ul/well PBS with 0.1% azide until use. Prior to assay, the plates were washed three times with 100 ul/well wash buffer (20 mM Tris-HCl pH 7.4, 150 mM NaCl, 2 mM CaCl2, 2 mM MgCl2 and 0.05% Tween 20). A stock solution of Siglec-8-Ig (30 ug/ml) was added to each well in 25 ul binding buffer (wash buffer plus 1% BSA) and incubated at room temperature for one hour. The plates were washed three times with 100 ul/well wash buffer and incubated for one hour with 25 ul/well goat anti-human IgG-Alexa 488 (Molecular Probes, Cat. No. A11013, Eugene, Oreg.) at 5 ug/ml in binding buffer. The plates were washed and read in 25 ul wash buffer on a Victor 2™ 1420 Multilabel Counter (PerkinElmer Life Sciences, Fremont, Calif.) at excitation 485/emission 535. The current version of the Consortium glycan array can be viewed at:
(http://www.functionalglycomics.org/static/consortium/resources/resourcecoreh.shtml), experiments were initiated to identify compounds that selectively and specifically bind to Siglec-8. Using Siglec-8-Ig fusion protein, a panel of 172 carbohydrate-based structures (see Table 1) was screened for specific Siglec-8 binding. […] The spacer arm itself, —O(CH2)3NH—CO(CH2)5NH-Biotin, found on many of the other non-binding structures, cannot explain the binding activity for Siglec-8.

[3] = target: T1, Siglec-8-Ig; assay: Binding of Siglec-8-Ig to aminoalkyl glycosides immobilized on activated (N-hydroxysuccinimidyl) glass surfaces; conditions: highest concentration tested 300 pmol/spot
From the text: A description of the printing and evaluation of the full array in this format has been submitted elsewhere (Ola Blixt, Steve Head, Tony Mondala, Christopher Scanlan, Margaret E. Huflejt, Richard Alvarez, Marian C. Bryan, Fabio Fazio, Daniel Calarese, James Stevens, Nahid Razi, David J. Stevens, John J. Skehel, Irma van Die, Dennis Burton, Ian A. Wilson, Richard Cummings, Nicolai Bovin, Chi-Huey Wong, and James C. Paulson ([…]) Proc. Natl. Acad. Sci. USA 101, 17033-17038). FITC-labeled goat anti-human IgG (Fc specific) was from Jackson Immunoresearch (West Grove, Pa.). […]
A solution of 100 μg/ml Siglec-8-Ig and 50 μg/ml FITC-labeled goat anti-human IgG (Fc-specific) in Dulbecco's PBS containing 0.005% Tween 20 was incubated for 30 min at 37° C. to allow complexes to form. […] An image of the bound fluorescence was obtaining using a microarray scanner (ScanArray Express, PerkinElmer Life Sciences, Boston, Mass.). The integrated spot intensities were determined using Metamorph software (Universal Imaging, Downingtown, Pa.). […]

[4] = target: T3, Siglec-F (Mus musculus, UniProt Q920G3); conditions: Consortium website; cited from earlier work
T3 sequence (Q920G3 17-569): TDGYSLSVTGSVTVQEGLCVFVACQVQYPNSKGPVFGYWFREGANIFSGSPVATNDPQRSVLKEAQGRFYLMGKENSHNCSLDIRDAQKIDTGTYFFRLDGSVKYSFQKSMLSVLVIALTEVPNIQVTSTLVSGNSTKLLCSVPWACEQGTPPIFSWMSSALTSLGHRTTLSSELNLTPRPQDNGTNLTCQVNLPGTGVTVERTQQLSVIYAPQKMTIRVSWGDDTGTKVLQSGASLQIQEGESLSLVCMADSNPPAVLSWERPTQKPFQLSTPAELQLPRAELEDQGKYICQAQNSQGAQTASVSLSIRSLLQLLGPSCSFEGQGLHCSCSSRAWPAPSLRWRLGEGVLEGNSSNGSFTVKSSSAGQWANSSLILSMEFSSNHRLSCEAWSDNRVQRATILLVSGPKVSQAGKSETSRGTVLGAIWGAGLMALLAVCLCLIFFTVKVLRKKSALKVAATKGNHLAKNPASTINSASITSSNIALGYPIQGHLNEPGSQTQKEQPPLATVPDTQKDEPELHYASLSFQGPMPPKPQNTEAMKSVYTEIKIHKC

[5] = tested on: Siglec-G-Ig fusion protein; conditions: Consortium website; cited from earlier work

Compound: CC(=O)N[C@H]1[C@H](OCCNC(=O)CCCCCNC(=O)CCCCCNC(=O)CCCC[C@@H]2SC[C@@H]3NC(=O)N[C@@H]32)O[C@H](CO)[C@@H](O[C@@H]2O[C@H](CO)[C@H](O)[C@H](O[C@]3(C(=O)O)C[C@H](O)[C@@H](NC(C)=O)[C@H]([C@H](O)[C@H](O)CO)O3)[C@H]2O)[C@@H]1O[C@@H]1O[C@@H](C)[C@@H](O)[C@@H](O)[C@@H]1O [#108, NeuAcα2-3Galβ1-4(Fucα1-3)GlcNAcβ1-O(CH2)2NHCO(CH2)5NHCO(CH2)5NH-Biotin]
Siglec-8-Ig binding by SPR (in words) ([1]; listed as sLe^x): failed to support detectable Siglec-8 binding; also recorded: No binding
Siglec-8-Ig binding in glycan array (in words) ([2]; listed as sLe^x): failed to bind
Siglec-8 binding to glycan immobilized on glass slide (in words) [3]: did not support any Siglec-8 binding

Compound: CC(=O)N[C@H]1[C@H](OCCCNC(=O)CCCCCNC(=O)CCCC[C@@H]2SC[C@@H]3NC(=O)N[C@@H]32)O[C@H](CO)[C@@H](O[C@@H]2O[C@H](COS(=O)(=O)O)[C@H](O)[C@H](O[C@]3(C(=O)O)C[C@H](O)[C@@H](NC(C)=O)[C@H]([C@H](O)[C@H](O)CO)O3)[C@H]2O)[C@@H]1O[C@@H]1O[C@@H](C)[C@@H](O)[C@@H](O)[C@@H]1O [#181, NeuAcα2-3(6-O-sulfo)Galβ1-4(Fucα1-3)GlcNAcβ1-O(CH2)3NH—CO(CH2)5NH-Biotin]
binding to Siglec-F (in words) [4]: selectively binds
association and dissociation profiles (in words) ([1]; SPR sensorgrams): very fast association and dissociation profiles
Kd ([1]; listed as 6′-sulfo-sLe^x): 2.3 µM and 2.2 to 2.3 µM
Kd [1]: 2 to 2.5 µM
Siglec-8-Ig binding by SPR (in words) [1]: specific binding
Siglec-8-Ig binding by SPR (in words) ([1]; listed as 6′-sulfo-sLe^x): significant binding; also recorded: reproducible binding
Siglec-8-Ig binding in glycan array (in words) [2]: stands out among all the others for binding activity; also recorded: By far the greatest binding
Siglec-8-Ig binding in glycan array (in words) ([2]; listed as 6′-sulfo-sLe^x): avid binding
binding to Siglec-G-Ig fusion protein (in words) [5]: failed to show specific binding

Compound: CC(=O)N[C@H]1[C@H](OCCCNC(=O)CCCCCNC(=O)CCCC[C@@H]2SC[C@@H]3NC(=O)N[C@@H]32)O[C@H](COS(=O)(=O)O)[C@@H](O[C@@H]2O[C@H](CO)[C@H](O)[C@H](O[C@]3(C(=O)O)C[C@H](O)[C@@H](NC(C)=O)[C@H]([C@H](O)[C@H](O)CO)O3)[C@H]2O)[C@@H]1O[C@@H]1O[C@@H](C)[C@@H](O)[C@@H](O)[C@@H]1O [#182, NeuAcα2-3Galβ1-4(Fucα1-3)(6-O-Su)GlcNAcβ1-O(CH2)3NH—CO(CH2)5NH-Biotin]
Siglec-8-Ig binding by SPR (in words) ([1]; listed as 6-sulfo-sLe^x): failed to support detectable Siglec-8 binding; also recorded: No binding
Siglec-8-Ig binding in glycan array (in words) ([2]; listed as 6-sulfo-sLe^x): failed to bind
Siglec-8 binding to glycan immobilized on glass slide (in words) [3]: did not support any Siglec-8 binding

Siglec-8-Ig binding by SPR (in words) [1]: non-binding
Compound: Galβ1-4GlcNAc [LacNAc, reference compound]
